Results: patent publication US8293774B2, “Optically active (R)-aryloxypropionic acid amides and herbicidal composition comprising same” (Kyung Nong Corporation, priority 2007, dated 2012)

Legend:
Rice = assay: Weed control test, 4-leaf stage plants (Test Example 1, Table 8); conditions: in vivo
Protocol: (§1) Seeds of rice, wheat, soy bean, barley, corn, common sorgum, barnyard grass, large crabgrass, creek grass, green foxtail and fall panicum were placed in sandy loam in 600 cm^2 pots and covered with soil. After keeping the pots in a greenhouse at 20 to 30° C. allowing growth of the plants to the 3-leaf stage of the barnyard grass, 2,000 l/ha of an emulsion obtained by diluting with water a mixture of 1 part by weight of a test compound, 5 parts by weight of acetone and 1 part by weight of an emulsifying agent (Tween 80, Junsei) was applied to the surface of the foliage of the plants. The plant damage at 10 days and 20 days after the foliage treatment was visually evaluated from the level of 1 to 100% by comparison with the untreated control: […]

Barnyard grass = assay: as above; assay type: in vivo, Echinoch crus-galli Beauv. var. caudata Kitagawa
Source text: as §1, with “[…],” for “After keeping the pots in a greenhouse at 20 to 30° C. allowing growth of the plants to the 3-leaf stage of the barnyard grass,”

[1] = test system: GLXMA (Glycine max(L.) MERR, soy bean); assay: Weed control test, foliage treatment (Test Example 1, Table 7); conditions: in vivo
Protocol: as §1

[2] = test system: ORYSA (Oryza sativa cv. Dongjin, rice); assay: as above; conditions: in vivo
Protocol: as §1

[3] = test system: TRZAW (Tritium aestivum L., wheat); assay: as above; conditions: in vivo
Protocol: as §1

[4] = test system: SETVIR (Setaria viridis (L.) Beauv, green foxtail); assay: as above; assay type: in vivo; conditions: Setaria viridis, foliar, read-out: Plant damage (herbicidal activity), visually evaluated, SETVIR; for pest or weed control at 25 g/ha: 0.025 kg/ha; for pest or weed control at 100 g/ha: 0.1 kg/ha; for pest or weed control at 200 g/ha: 0.2 kg/ha
Protocol: as §1

[5] = test system: ARTHIS (Arthraxon hispidus (Thunb.) Makino, creek grass); assay: as above; assay type: in vivo; conditions: Arthraxon hispidus, foliar, read-out: Plant damage (herbicidal activity), visually evaluated, ARTHIS; for pest or weed control at 25 g/ha: 0.025 kg/ha; for pest or weed control at 100 g/ha: 0.1 kg/ha; for pest or weed control at 200 g/ha: 0.2 kg/ha
Protocol: as §1

[6] = test system: ZEAMX (Zea mays L., corn); assay: as above; assay type: in vivo; conditions: Zea mays, foliar, read-out: Plant damage (herbicidal activity), visually evaluated, ZEAMX; for plant injury at 25 g/ha: 0.025 kg/ha; for plant injury at 100 g/ha: 0.1 kg/ha; for plant injury at 200 g/ha: 0.2 kg/ha
Protocol: as §1

[7] = test system: PANDI (Panium dichotomiflorum Michx, fall panicum); assay: as above; assay type: in vivo; conditions: Panicum dichotomiflorum, foliar, read-out: Plant damage (herbicidal activity), visually evaluated, PANDI; for pest or weed control at 25 g/ha: 0.025 kg/ha; for pest or weed control at 100 g/ha: 0.1 kg/ha; for pest or weed control at 200 g/ha: 0.2 kg/ha
Protocol: as §1

[8] = test system: ECHOG (Echinoch crus-galli Beauv. var. caudata Kitagawa, barnyard grass); assay: as above; assay type: in vivo; conditions: Echinochloa crus-galli, foliar, 3-leaf stage, read-out: Plant damage (herbicidal activity), visually evaluated, ECHOG; for pest or weed control at 25 g/ha: 0.025 kg/ha; for pest or weed control at 100 g/ha: 0.1 kg/ha; for pest or weed control at 200 g/ha: 0.2 kg/ha
Protocol: as §1

[9] = test system: SORBI (Andropogon sorghum, common sorgum); assay: as above; assay type: in vivo; conditions: Sorghum bicolor, foliar, read-out: Plant damage (herbicidal activity), visually evaluated, SORBI; for pest or weed control at 25 g/ha: 0.025 kg/ha; for pest or weed control at 100 g/ha: 0.1 kg/ha; for pest or weed control at 200 g/ha: 0.2 kg/ha
Protocol: as §1

[10] = test system: DIGSA (Digitaria Sanguinalis (L.) SCOP, large crabgrass); assay: as above; assay type: in vivo; conditions: Digitaria sanguinalis, foliar, read-out: Plant damage (herbicidal activity), visually evaluated, DIGSA; for pest or weed control at 25 g/ha: 0.025 kg/ha; for pest or weed control at 100 g/ha: 0.1 kg/ha; for pest or weed control at 200 g/ha: 0.2 kg/ha
Protocol: as §1

[11] = test system: HORVU (Hordeum vulgare L., barley); assay: as above; conditions: in vivo
Protocol: as §1

| SMILES | Plant damage (herbicidal activity), visually evaluated, GLXMA [1] | Plant damage (herbicidal activity), visually evaluated, ORYSA [2] | Plant damage (herbicidal activity), visually evaluated, TRZAW [3] | pest or weed control at 25 g/ha [4] | pest or weed control at 100 g/ha [4] | pest or weed control at 200 g/ha [4] | pest or weed control at 25 g/ha [5] | pest or weed control at 100 g/ha [5] | pest or weed control at 200 g/ha [5] | plant injury at 25 g/ha [6] | plant injury at 100 g/ha [6] | plant injury at 200 g/ha [6] | pest or weed control at 25 g/ha [7] | pest or weed control at 100 g/ha [7] | pest or weed control at 200 g/ha [7] | pest or weed control at 25 g/ha [8] | pest or weed control at 100 g/ha [8] | pest or weed control at 200 g/ha [8] | pest or weed control at 25 g/ha [9] | pest or weed control at 100 g/ha [9] | also measured |
| --- | --- | --- | --- | --- | --- | --- | --- | --- | --- | --- | --- | --- | --- | --- | --- | --- | --- | --- | --- | --- | --- |
| COc1ccc2nc(N(C)C(=O)[C@@H](C)Oc3ccc(Oc4nc5ccc(Cl)cc5o4)cc3)sc2c1 [Example 14, (R)-2-[4-(6-chloro-2-benzoxazolyloxy)phenoxy]propionic acid-N-(6-methoxy-2-benzothiazolyl)-N-methyl amide] | 0% | 0% | 0% | 0% | 20% | 50% | 0% | 20% | 50% | 0% | 10% | 90% | 0% | 20% | 70% | 0% | 20% | 70% | 10% | 50% | Plant damage (herbicidal activity), visually evaluated, Rice (Rice): 0%; Plant damage (herbicidal activity), visually evaluated, Barnyard grass (Barnyard grass; 0.025 kg/ha): 0%; Plant damage (herbicidal activity), visually evaluated, Barnyard grass (Barnyard grass; 0.05 kg/ha): 0%; Plant damage (herbicidal activity), visually evaluated, Barnyard grass (Barnyard grass; 0.1 kg/ha): 10%; Plant damage (herbicidal activity), visually evaluated, Barnyard grass (Barnyard grass; 0.4 kg/ha): 50%; pest or weed control at 200 g/ha [9]: 90%; pest or weed control at 25 g/ha [10]: 0%; pest or weed control at 100 g/ha [10]: 20%; pest or weed control at 200 g/ha [10]: 70% |
| C[C@@H](Oc1ccc(OC(F)=Cc2ccc(Cl)cc2)cc1)C(=O)Nc1nc2cc(Cl)ccc2o1 [Example 56, (R)-2-[4-(1-fluoro-2-(4-chlorophenyl)vinyloxy)phenoxy]propionic acid-N-(5-chloro-2-benzoxazolyl)amide] | 0% | 0% | 0% | 0% | 0% | 20% | 0% | 0% | 10% | 10% | 90% | 90% | 0% | 0% | 10% | 20% | 70% | 90% | 0% | 20% | Plant damage (herbicidal activity), visually evaluated, HORVU [11]: 0%; pest or weed control at 200 g/ha [9]: 20%; pest or weed control at 25 g/ha [10]: 0%; pest or weed control at 100 g/ha [10]: 20%; pest or weed control at 200 g/ha [10]: 90% |
| C[C@@H](Oc1ccc(Oc2ccc(C#N)cc2F)cc1)C(=O)Nc1cnccn1 [Example 35, (R)-2-[4-(4-cyano-2-fluorophenoxy)phenoxy]propionic acid-N-(2-pyrazinyl)amide] | 0% | 0% | 0% | 0% | 30% | 50% | 0% | 10% | 30% | 0% | 20% | 30% | 0% | 0% | 30% | 0% | 10% | 30% | 20% | 65% | Plant damage (herbicidal activity), visually evaluated, HORVU [11]: 0%; pest or weed control at 200 g/ha [9]: 80%; pest or weed control at 25 g/ha [10]: 10%; pest or weed control at 100 g/ha [10]: 40%; pest or weed control at 200 g/ha [10]: 60% |
| C[C@@H](Oc1ccc(Oc2ccc(C#N)cc2F)cc1)C(=O)Nc1nccs1 [Example 31, (R)-2-[4-(4-cyano-2-fluorophenoxy)phenoxy]propionic acid-N-(2-thiazolyl)amide] | 0% | 0% | 0% | 0% | 70% | 70% | 0% | 70% | 70% | 20% | 90% | 90% | 0% | 20% | 20% | 0% | 50% | 90% | 0% | 20% | Plant damage (herbicidal activity), visually evaluated, HORVU [11]: 0%; pest or weed control at 200 g/ha [9]: 50%; pest or weed control at 25 g/ha [10]: 0%; pest or weed control at 100 g/ha [10]: 20%; pest or weed control at 200 g/ha [10]: 70% |
| C[C@@H](Oc1ccc(Oc2ccc(C#N)cc2F)cc1)C(=O)Nc1nc2ccc(Cl)cc2s1 [Example 21, (R)-2-[4-(4-cyano-2-fluorophenoxy)phenoxy]propionic acid-N-(6-chloro-2-benzothiazolyl)amide] | 0% | 0% | 0% | 0% | 70% | 90% | 0% | 70% | 70% | 20% | 90% | 100% | 0% | 70% | 70% | 20% | 70% | 90% | 0% | 20% | Plant damage (herbicidal activity), visually evaluated, HORVU [11]: 0%; pest or weed control at 200 g/ha [9]: 50%; pest or weed control at 25 g/ha [10]: 0%; pest or weed control at 100 g/ha [10]: 20%; pest or weed control at 200 g/ha [10]: 90% |
